Experimental findings from US20140005163A1 (NOVARTIS AG, priority 2010, published 2014) are described below.

A short description of data set [1]: Cellular CaCo2 permeability assay from apical to basal (A-B). As to conditions: human, Caco-2, read-out: Pe A-B (permeability). Type of data set: in vitro ADME. An excerpt:
The permeability in 10^−6 cm/s of compounds of formula (I) have been confirmed for selected example using a cellular CaCo2 permeability assay from apical to basal (A-B): […]

Data set [2] concerns PKB Ser473 phosphorylation in Rat1-myr-HA-p110 alpha cells. In words: Reverse protein array assay, PKB Ser473 phosphorylation in Rat1-myr-p110 alpha cells. As to conditions: 0.5 h, pAkt Ser473, 30 minutes compound incubation, read-out: p-PKB IC50. It counts as cell-based. In short, it runs like this:
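Lysates were arrayed at four dilutions, and phospho-PKB Ser473 was quantified by relative fluorescence signal. They came from Rat1-myr-HA-p110 alpha, beta or delta cells exposed for 30 min at 37 °C to an 8-point compound series with 0.2% DMSO constant.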

In the next data set the target is T1, PI3K gamma (Homo sapiens, UniProt P48736).
T1 construct: His tag (C); made in house; host or cells: baculovirus (pVL1393); Tn5 or TiniPro insect cells; construct from Roger Williams lab, MRC LMB
T1 sequence (P48736 144-1102 limits assumed): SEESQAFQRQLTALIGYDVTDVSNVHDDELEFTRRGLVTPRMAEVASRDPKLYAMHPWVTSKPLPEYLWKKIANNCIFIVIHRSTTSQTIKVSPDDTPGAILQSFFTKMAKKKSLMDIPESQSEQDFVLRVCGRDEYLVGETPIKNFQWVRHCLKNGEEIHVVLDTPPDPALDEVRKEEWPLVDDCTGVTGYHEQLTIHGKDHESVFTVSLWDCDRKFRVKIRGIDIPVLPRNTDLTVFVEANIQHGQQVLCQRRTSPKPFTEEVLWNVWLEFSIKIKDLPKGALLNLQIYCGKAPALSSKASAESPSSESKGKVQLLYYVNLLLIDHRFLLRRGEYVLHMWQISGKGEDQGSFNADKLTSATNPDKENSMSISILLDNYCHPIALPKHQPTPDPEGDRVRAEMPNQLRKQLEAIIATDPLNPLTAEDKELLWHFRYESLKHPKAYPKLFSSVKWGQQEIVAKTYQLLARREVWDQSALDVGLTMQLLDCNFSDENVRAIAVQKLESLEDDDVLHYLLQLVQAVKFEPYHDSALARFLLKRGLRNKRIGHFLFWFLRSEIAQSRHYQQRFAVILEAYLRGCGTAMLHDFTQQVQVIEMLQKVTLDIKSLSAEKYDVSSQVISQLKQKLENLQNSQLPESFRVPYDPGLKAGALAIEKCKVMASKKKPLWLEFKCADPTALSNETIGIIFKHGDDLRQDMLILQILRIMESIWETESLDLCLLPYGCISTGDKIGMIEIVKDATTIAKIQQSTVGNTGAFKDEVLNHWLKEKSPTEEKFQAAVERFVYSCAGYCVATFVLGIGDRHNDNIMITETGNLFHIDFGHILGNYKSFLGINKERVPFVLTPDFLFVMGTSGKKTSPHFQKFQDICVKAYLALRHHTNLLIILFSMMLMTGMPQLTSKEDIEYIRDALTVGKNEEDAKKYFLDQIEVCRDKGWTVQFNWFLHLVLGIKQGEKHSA
In words: PI3K gamma kinase assay (Kinase-Glo luminescence). Type of data set: biochemical. The method in brief: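 Luminescent ATP-depletion (Kinase-Glo) assay with 150 nM PI3Kγ, 1 μM ATP and 10 μg/mL phosphatidylinositol in 10 mM Tris-HCl pH 7.5, 3 mM MgCl2, 50 mM NaCl, 0.05% CHAPS, 1 mM DTT; 120 min at room temperature. Eight-point dilutions; IC50 by four-parameter logistic fit.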

As a reminder, the IC50 is the point on the concentration scale where inhibition reaches its midpoint.

As to `CCOc1cc(-c2ccc3ncc4c(c3c2)n(-c2cn(C)nc2C)c(=O)n4C)cnc1COC` [Example 197.1, 1-(1,3-Dimethyl-1H-pyrazol-4-yl)-8-(5-ethoxy-6-methoxymethyl-pyridin-3-yl)-3-methyl-1,3-dihydro-imidazo[4,5-c]quinolin-2-one], in data set [1], the Papp A→B is 15.8 ×10⁻⁶ cm/s. Moreover, in data set [2], the concentration for half-maximal inhibition (IC50) came to 23 nM.
As for `COCc1cncc(-c2ccc3ncc4c(c3c2)n(-c2cn(C)nc2Cl)c(=O)n4C)c1` [Example 54.2, 1-(3-Chloro-1-methyl-1H-pyrazol-4-yl)-8-(5-methoxymethyl-pyridin-3-yl)-3-methyl-1,3-dihydro-imidazo[4,5-c]quinolin-2-one], in data set [1], the Papp A→B worked out at 33.5 ×10⁻⁶ cm/s. For the same compound, the IC50 in data set [2] was 42 nM.
As for `CNc1cc(-c2ccc3ncc4c(c3c2)n(-c2cn(C)nc2C)c(=O)n4C)cnc1COC` [Example 159, 1-(1,3-Dimethyl-1H-pyrazol-4-yl)-8-(6-methoxymethyl-5-methylamino-pyridin-3-yl)-3-methyl-1,3-dihydro-imidazo[4,5-c]quinolin-2-one], the Papp A→B in data set [1] was determined as 13.9 ×10⁻⁶ cm/s. The IC50 in data set [2] amounted to 7 nM.
As for `Cc1nn(C(C)C)cc1-n1c(=O)n(C)c2cnc3ccc(-c4cncc(C(C)(C)O)c4)cc3c21` [Example 215.1, 8-[5-(1-Hydroxy-1-methyl-ethyl)-pyridin-3-yl]-1-(1-isopropyl-3-methyl-1H-pyrazol-4-yl)-3-methyl-1,3-dihydro-imidazo[4,5-c]quinolin-2-one], in data set [1], the Papp A→B amounted to 5.9 ×10⁻⁶ cm/s. Also, the IC50 in data set [2] was determined as 16 nM.
On to `COc1ccc(-c2ccc3ncc4[nH]c(=O)n(-c5cc(C)nn5C)c4c3n2)cc1OC` [Example 252, 8-(3,4-Dimethoxy-phenyl)-1-(2,5-dimethyl-2H-pyrazol-3-yl)-1,3-dihydro-1,3,5,9-tetraaza-cyclopenta[a]naphthalen-2-one], for which, in data set [1], the Papp A→B is 29.4 ×10⁻⁶ cm/s. Also, the figures for the half-maximal inhibitory concentration (IC50) (at PI3K gamma; in data set [2]) were 45 nM and 12 nM, respectively.
In the case of `CCn1cc(-n2c(=O)n(C)c3cnc4ccc(-c5cnc(OC)nc5OC)cc4c32)c(C)n1` [Example 234.1, 8-(2,4-Dimethoxy-pyrimidin-5-yl)-1-(1-ethyl-3-methyl-1H-pyrazol-4-yl)-3-methyl-1,3-dihydro-imidazo[4,5-c]quinolin-2-one], the Papp A→B in data set [1] was determined as 35.5 ×10⁻⁶ cm/s. In addition, in data set [2], the IC50 worked out at 10 nM.
On to `COc1cncc(-c2ccc3ncc4c(c3c2)n(-c2cn(C)nc2C)c(=O)n4C)c1` [Example 12, 1-(1,3-Dimethyl-1H-pyrazol-4-yl)-8-(5-methoxy-pyridin-3-yl)-3-methyl-1,3-dihydro-imidazo[4,5-c]quinolin-2-one], for which, in data set [1], the Papp A→B was 24 ×10⁻⁶ cm/s. For the same compound, the results for the half-maximal inhibitory concentration (IC50) (on PI3K gamma; in data set [2]) were 92 nM and 37 nM, respectively.
Regarding `CCOc1ccc(-c2ccc3ncc4c(c3c2)n(-c2cn(C)nc2C)c(=O)n4C)cn1` [Example 3.1, 1-(1,3-Dimethyl-1H-pyrazol-4-yl)-8-(6-ethoxy-pyridin-3-yl)-3-methyl-1,3-dihydro-imidazo[4,5-c]quinolin-2-one], in data set [1], the Papp A→B amounted to 28.6 ×10⁻⁶ cm/s. Also, the 50% inhibitory concentration (IC50) on PI3K gamma is 246 nM; in data set [2], 24 nM.
On to `CCOc1cncc(-c2ccc3ncc4c(c3c2)n(-c2cn(C)nc2C)c(=O)n4C)c1` [Example 56.1, 1-(1,3-Dimethyl-1H-pyrazol-4-yl)-8-(5-ethoxy-pyridin-3-yl)-3-methyl-1,3-dihydro-imidazo[4,5-c]quinolin-2-one], for which, in data set [1], the Papp A→B was 39.7 ×10⁻⁶ cm/s. In addition, the IC50 on PI3K gamma came to 123 nM; in data set [2], 16 nM.
Turning to `CNc1ncc(-c2ccc3ncc4c(c3c2)n(-c2cn(C)nc2C)c(=O)n4C)cc1Cl` [Example 146.1, 8-(5-Chloro-6-methylamino-pyridin-3-yl)-1-(1,3-dimethyl-1H-pyrazol-4-yl)-3-methyl-1,3-dihydro-imidazo[4,5-c]quinolin-2-one], the Papp A→B in data set [1] was found to be 29.1 ×10⁻⁶ cm/s. For the same compound, the IC50 in data set [2] was less than 5 nM.
Take `CCOc1ccc(-c2ccc3ncc4c(c3c2)n(-c2cn(CC(=O)N(C)CC)nc2C)c(=O)n4C)cn1` [Example 136, 2-{4-[8-(6-Ethoxy-pyridin-3-yl)-3-methyl-2-oxo-2,3-dihydro-imidazo[4,5-c]quinolin-1-yl]-3-methyl-pyrazol-1-yl}-N-ethyl-N-methyl-acetamide]: the Papp A→B in data set [1] was determined as 17 ×10⁻⁶ cm/s. In addition, the 50% inhibitory concentration (IC50) in data set [2] came to 11 nM.
On to `Cc1nn(C)cc1-n1c(=O)n(C)c2cnc3ccc(-c4cnc(N(C)C)nc4)cc3c21` [Example 6.2, 8-(2-Dimethylamino-pyrimidin-5-yl)-1-(1,3-dimethyl-1H-pyrazol-4-yl)-3-methyl-1,3-dihydro-imidazo[4,5-c]quinolin-2-one], for which, in data set [1], the Papp A→B worked out at 26.6 ×10⁻⁶ cm/s. In addition, the IC50 turned out to be 319 nM at PI3K gamma and 32 nM in data set [2].
